# Reference: ChEMBL document CHEMBL3585319 (J Med Chem, 2015)
# Activity calls are given as the source filed them. No cut-off for these calls is given here.
# Key:
# [1] = biological target: T1, Sodium-dependent serotonin transporter (Homo sapiens, UniProt P31645); assay: (§1) Irreversible photoaffinity labeling of hemagglutinin-tagged human SERT expressed in LLCPK1 cells at 10 nM incubated for 1.5 hrs at 4 degC followed by irradiation with shortwave ultraviolet light for 5 mins by SDS-PAGE and autoradiography method; type: cell-based; settings: LLC-PK1, tested as the 125I-labelled form
# Target sequence in this assay (P31645 whole entry, looked up): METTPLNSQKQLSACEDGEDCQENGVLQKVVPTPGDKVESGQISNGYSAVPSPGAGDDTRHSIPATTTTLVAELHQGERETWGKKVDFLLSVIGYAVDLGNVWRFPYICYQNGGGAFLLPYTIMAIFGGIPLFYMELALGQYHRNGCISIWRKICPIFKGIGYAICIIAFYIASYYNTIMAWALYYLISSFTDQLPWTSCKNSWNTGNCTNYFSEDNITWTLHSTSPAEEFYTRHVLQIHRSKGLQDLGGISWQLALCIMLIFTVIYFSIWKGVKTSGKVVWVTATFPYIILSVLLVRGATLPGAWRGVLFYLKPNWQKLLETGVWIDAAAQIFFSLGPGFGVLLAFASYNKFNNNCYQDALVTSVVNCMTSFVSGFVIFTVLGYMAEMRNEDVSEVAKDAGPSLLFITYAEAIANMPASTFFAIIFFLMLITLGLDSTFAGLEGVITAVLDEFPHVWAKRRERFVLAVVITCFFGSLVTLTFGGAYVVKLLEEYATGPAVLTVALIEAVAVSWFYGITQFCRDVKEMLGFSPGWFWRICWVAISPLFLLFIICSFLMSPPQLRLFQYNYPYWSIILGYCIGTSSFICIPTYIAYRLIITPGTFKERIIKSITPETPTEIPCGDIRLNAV
# [2] = biological target: T1, Sodium-dependent serotonin transporter; assay: Inhibition of wild type human SERT expressed in HEK293 GripTite cells pre-incubated for 5 mins followed by [3H]5-HT addition by [3H]5-HT uptake assay; type: cell-based
# Target sequence in this assay (P31645 whole entry): as the sequence (P31645 whole entry, looked up) above
# [3] = biological target: T1, Sodium-dependent serotonin transporter; assay: as §1, with “cells assessed as 10 uM (s)-citalopram-induced blocking of compound binding” for “cells”; type: cell-based; settings: LLC-PK1, tested as the 125I-labelled form
# Target sequence in this assay (P31645 whole entry, looked up): as above
# [4] = biological target: Sodium-dependent serotonin transporter (Homo sapiens, UniProt P31645, S438T); type: cell-based, HEK293
# Homo sapiens = organism: Homo sapiens; assay: Resistance index, ratio of Ki for human SERT S438T mutant expressed in HEK293 GripTite cells to Ki for wild type human SERT expressed in HEK293 GripTite cells; type: cell-based
# Sequence of Sodium-dependent serotonin transporter (Homo sapiens, UniProt P31645, S438T) (P31645 whole entry S438T): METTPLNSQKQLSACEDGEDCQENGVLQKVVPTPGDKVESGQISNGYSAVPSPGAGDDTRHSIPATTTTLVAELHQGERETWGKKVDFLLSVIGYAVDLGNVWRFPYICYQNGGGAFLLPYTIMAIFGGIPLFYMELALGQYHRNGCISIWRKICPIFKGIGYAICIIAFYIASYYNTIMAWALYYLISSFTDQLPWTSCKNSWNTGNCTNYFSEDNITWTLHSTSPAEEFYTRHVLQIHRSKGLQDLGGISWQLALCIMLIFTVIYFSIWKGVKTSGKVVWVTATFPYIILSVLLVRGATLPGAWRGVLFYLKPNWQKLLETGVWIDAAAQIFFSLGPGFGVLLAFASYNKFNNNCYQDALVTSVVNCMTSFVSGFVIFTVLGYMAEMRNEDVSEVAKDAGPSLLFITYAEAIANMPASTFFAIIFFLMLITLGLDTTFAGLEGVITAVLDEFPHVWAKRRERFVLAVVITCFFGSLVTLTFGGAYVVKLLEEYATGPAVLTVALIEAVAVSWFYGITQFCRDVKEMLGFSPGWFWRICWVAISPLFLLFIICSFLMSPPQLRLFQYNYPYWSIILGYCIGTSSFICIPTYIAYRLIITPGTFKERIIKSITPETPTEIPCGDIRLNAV
Compound,Activity [1],Ki [2] [nM],inhibition [3] [%],Ki [4] [nM],Ratio Ki (Homo sapiens)
CN(C)CCC[C@@]1(c2ccc(F)cc2)OCc2cc(CNC(=O)CCc3ccc(N=[N+]=[N-])c(I)c3)ccc21,Active,38,> 99,9880,
CN(CCC[C@@]1(c2ccc(F)cc2)OCc2cc(C#N)ccc21)CCc1ccc(N=[N+]=[N-])c(I)c1,Active,227,30,3810,17
COC(=O)[C@@H]1C2CCC(C[C@@H]1c1ccc(Cl)cc1)N2CCCCc1ccc(N=[N+]=[N-])c(I)c1 (some centres undefined),Active,,,,
CN(C)CCC[C@@]1(c2ccc(F)cc2)OCc2cc(CNC(=O)c3ccc(N=[N+]=[N-])c(I)c3)ccc21,Active,24,> 99,5700,
